Results from the supplement of paper PMC13380429.

How the values were obtained:
Conditions in all cases: 72 h
Caco-2 [1] = assay: cell viability relative to DMSO; higher = less toxic
Vero E6 [2] = assay: as above
Calu-3 [3] = assay: as above
HepG2 [4] = assay: as above
U2OS [5] = assay: as above
Caco-2 [6] = assay: relative viability EC50 (midpoint between 100% and the lowest measured viability); higher = less toxic
Vero E6 [7] = assay: as above
Calu-3 [8] = assay: as above
HepG2 [9] = assay: as above
U2OS [10] = assay: as above
Caco-2 [11] = assay: drug sensitivity score (DSS) for viability; higher = more toxic; extreme values may be limits of the assay
Vero E6 [12] = assay: as above
Calu-3 [13] = assay: as above
HepG2 [14] = assay: as above
U2OS [15] = assay: as above

Structure (SMILES)	cell viability (Caco-2 [1]; 1 nM) [%]	cell viability (Caco-2 [1]; 10 nM) [%]	cell viability (Caco-2 [1]; 100 nM) [%]	cell viability (Caco-2 [1]; 1000 nM) [%]	cell viability (Caco-2 [1]; 10000 nM) [%]	cell viability (Vero E6 [2]; 1 nM) [%]	cell viability (Vero E6 [2]; 10 nM) [%]	cell viability (Vero E6 [2]; 100 nM) [%]	cell viability (Vero E6 [2]; 1000 nM) [%]	cell viability (Vero E6 [2]; 10000 nM) [%]	cell viability (Calu-3 [3]; 1 nM) [%]	cell viability (Calu-3 [3]; 10 nM) [%]	cell viability (Calu-3 [3]; 100 nM) [%]	cell viability (Calu-3 [3]; 1000 nM) [%]	cell viability (Calu-3 [3]; 10000 nM) [%]	cell viability (HepG2 [4]; 1 nM) [%]	cell viability (HepG2 [4]; 10 nM) [%]	cell viability (HepG2 [4]; 100 nM) [%]	cell viability (HepG2 [4]; 1000 nM) [%]	cell viability (HepG2 [4]; 10000 nM) [%]	cell viability (U2OS [5]; 1 nM) [%]	cell viability (U2OS [5]; 10 nM) [%]	cell viability (U2OS [5]; 100 nM) [%]	cell viability (U2OS [5]; 1000 nM) [%]	cell viability (U2OS [5]; 10000 nM) [%]	relative viability EC50 (Caco-2 [6]) [µM]	relative viability EC50 (Vero E6 [7]) [µM]	relative viability EC50 (Calu-3 [8]) [µM]	relative viability EC50 (HepG2 [9]) [µM]	relative viability EC50 (U2OS [10]) [µM]	drug sensitivity score (Caco-2 [11])	drug sensitivity score (Vero E6 [12])	drug sensitivity score (Calu-3 [13])	drug sensitivity score (HepG2 [14])	drug sensitivity score (U2OS [15])
COCCCC/C(=N\OCCN)c1ccc(C(F)(F)F)cc1 [fluvoxamine]	124	109	84.3	80.6	94.1	91.6	103	98.1	101	88	102	109	95.6	96.5	93.7	99.3	93.5	100	105	100	104	97.3	98	96.4	98.5	> 10	> 10	> 10	> 10	> 10	4	0	0	0	0
C[C@@H](O[C@H]1OCCN(Cc2nn(P(=O)(O)O)c(=O)[nH]2)[C@H]1c1ccc(F)cc1)c1cc(C(F)(F)F)cc(C(F)(F)F)c1 [fosaprepitant-dimeglumine]	98.4	95.1	93.2	102	90.8	92.5	97.3	97.9	99.6	99.7	99.7	93.8	102	93.8	108	93.6	93.4	88.7	91.9	89.6	98.6	103	95.4	96.1	86.4	> 10	> 10	> 10	> 10	> 10	0	0	0	0.1	0.1
CC(OC(=O)NCC1(CC(=O)O)CCCCC1)OC(=O)C(C)C (stereo not given) [gabapentin-enacarbil]	105	87.2	106	110	104	83.4	97.8	84.2	107	106	103	96.3	106	104	89	101	93.8	94.7	90.1	89.4	101	96.5	102	94	102	> 10	> 10	> 10	> 10	> 10	0	0	0	0	0
Oc1noc2c1CCNC2 [gaboxadol]	92.6	99	91.6	104	95.3	96.6	95.8	96.2	94.6	106	99.7	91.4	103	103	99.4	105	101	88.2	101	98.1	102	100	94.3	98.3	94.2	> 10	> 10	> 10	> 10	> 10	0	0	0	0	0
C[C@H](N)Cc1cccc(O)c1 [gepefrine]	91.3	104	88	99.1	111	99.7	96	98.1	101	111	93.4	100	102	99.7	88.7	103	97.2	96.8	104	109	88	93.9	90.3	95	103	> 10	> 10	> 10	> 10	> 10	0	0	0	0	0
NNc1nncc2ccccc12 [hydralazine]	104	105	91.4	108	88.3	98.7	101	105	105	99.3	95	102	89	85.3	85	98.4	106	128	98.5	114	98.4	102	99.4	101	95.8	> 10	> 10	> 10	> 10	> 10	0	0	2.2	0	0
